Source: patent US12617760B2, “[(5-phenyl-1-heteroaryl-1H-triazol-3-yl)oxy] acetic acid derivatives as safeners for the protection of useful plants and crop plants” (BAYER AKTIENGESELLSCHAFT, priority 2020, dated 2026)

Test system: summer barley (HORVS)
Assay: Reduction of damage by mesosulfuron-methyl on summer barley (safener greenhouse test, post-emergence)
Assay type: in vivo, summer barley (HORVS; cv. Montoya)
Set-up: key: 0: no reduction in damage (appearance corresponding to the herbicide control); 1: slight reduction in damage; 2: distinct reduction in damage; 3: significant reduction in damage; 4: complete reduction in damage (appearance corresponding to the untreated control)
Conditions: safener dose 500 g/ha, sprayed at BBCH10-12, followed by mesosulfuron-methyl 40-60 g/ha, visual assessment 9-13 days after application, 2 repeats
Protocol: 2.1 Relative Action of Selected Compounds of the Invention Using the Example of Reduction of Damage by Mesosulfuron-Methyl on Summer Barley (HORVS) The seeds of the crop plants to be treated are laid out in sandy loam in plastic pots (diameter ˜4 cm), covered with soil and grown in a greenhouse under good conditions for germination and growth. The trial plants were treated at the early leaf stage (BBCH10-BBCH12). In the course of this, the inventive compounds of the general formula (I) formulated in the form of wettable powders (WP) were sprayed onto the above-ground parts of the plants as an aqueous suspension with a water application rate corresponding to 800 l/ha with addition of wetting agent (e.g. 0.2% Genapol-LRO or 0.2% Mero) in the specified dose. This was followed by the application of the herbicide. For this purpose, mesosulfuron-methyl, formulated in the form of water-dispersible granules (WG), was sprayed onto the above-ground parts of the plants in the form of an aqueous dispersion with a water application rate corresponding to 800 l/ha with addition of wetting agent (e.g. 0.2% Genapol-LRO or 1 l/ha Biopower) in a dose of 40-60 g/ha. […] 9-13 days after application, the efficacy of the test compounds was assessed visually. […]

COC(=O)COc1nc(-c2ccc(F)cc2F)n(-c2ccc(F)cn2)n1 [I.40-11, Methyl {[5-(2,4-difluorophenyl)-1-(5-fluoropyridin-2-yl)-1H-1,2,4-triazol-3-yl]oxy}acetate]
Efficacy of the safener (efficacy code): 2
